We go through 2 compounds from paper PMC9889419 (Pharmacological Reports, 2022).

“And” between values parts separate entries of the source, which are not always exact repeats. Equal entries are not always repeated. Structures can show the parent of a compound that is named as a salt.

In data set [1] the test system is CYP3A4 (pregnane X receptor). The data set is described as follows: In vitro metabolic gene induction studies. The format is cell-based, human.
Description: Solvent Code: DMSO solvent Prep: Unit: uM
Cell line source: Puracyp Molecular 257.7590
lsofoIm Coder CYP3A4 Cell line: DP)e
Induction mechanism: pregnane X receptor
Concentration lnduction Cell
Fold +/- S.D Viability +/- S.D
Data set [2] in a line: Forced degradation studies (HPLC). It counts as physicochemical. How it is done:
HPLC conditions and equipment. The liquid chromatography system HITACHI High-Technologies Corporation (Tokyo, Japan) equipped with a solvent delivery pump (L-2130), a degasser, an autosampler (L-2200), a photodiode array detector (L-2455) and a column oven (L-2350) was used. […] The injection volume was 20 µL. Based on the registered absorption spectrum detection wavelength was selected as 230 nm. The analysis time was 15 min.
Irradiation conditions. Irradiation was conducted in a climatic chamber KBF-ICH 240 APT.lineTM (Binder GmbH, Tuttlingen, Germany) at 25 °C and 60% humidity using UVA radiation (320–400 nm) with maximum emission at 365 nm. The intensity of radiation was determined using a radiometer type VLX-3 W, Vilber Lourmat, with a CX-365 sensor, to be each time of […]. The distance between the samples and the radiation source was 13 cm.
Degradation in acidic solution. […] 8 mL of the examined solution was transferred to a glass vial and heated in an oven at 70 °C. The sample volume of 0.5 mL was taken and diluted with 0.5 mL of water. The solution was analyzed three times by HPLC method.
Degradation in basic solution. […] 4 mL of examined solution was transferred to glass vials of 8 mL capacity and heated in an oven at 70 °C. The volume of 0.5 mL was taken and diluted with 0.5 mL of 0.5 M HCl. The solution was analyzed three times by HPLC method.
Degradation in phosphate buffer at pH = 7.0. […] The volume of 8 mL of examined solution was transferred to glass vials of 8 mL capacity and stored in a dark place at 25 °C or heated in an oven at 70 °C. The volume of 0.5 mL of solution was taken and diluted with 0.5 mL of water. The solution was analyzed by HPLC method.
Degradation in the presence of oxidative agent. […] The samples were stored at 25 °C. The volume of 0.5 mL of solution was taken and diluted with 0.5 mL of water. The solution was analyzed three times by HPLC method. […] The volume of 8 mL of examined solution was transferred to glass vials of 8 mL capacity and heated in an oven at 40 °C. The volume of 0.5 mL of solution was taken and diluted with 0.5 mL of water. The solution was analyzed by HPLC method.
Degradation in the presence of reducing agent. […] 8 mL of the examined solution was transferred to 8 mL glass vials and stored at 25 °C and 40 °C. The volume of 0.5 mL of solution was taken and diluted with 0.5 mL of water. The solution was analyzed three times by HPLC method.
Photodegradation under UV irradiation. […] 2 mL of the examined solution was transferred to a quartz Petri-dishes with diameter 4 cm and sealed with parafilm. Dark control samples were prepared in the same way, but they were secured with aluminum foil. The examined samples and the dark control samples were placed in a climatic chamber at […] and humidity 60% and irradiated for 96 h. The volume of 0.5 mL of solution was taken to the vials and the solution was analyzed by HPLC method.

Data set [3] can be described thus: pKa by potentiometric titration. It counts as physicochemical. As to conditions: aqueous solution titrated with 0.051 M NaOH; 37 °C. How it is done: pKa. The assay was performed by potentiometric titration, at 37 °C. The method is based on the additional portions of 0.051 M NaOH solution to the aqueous solution of test compounds, on electromagnetic stirrer with contact thermometer (Heidolph MR Hei-Standard). NaOH solution was added in 500 μL portions using Eppendorf automatic pipette. Waiting a few seconds after each titrant addition allowed the solution temperature to stabilize. After this time pH was recorded with the use of pH-meter CP-551 (Elmetron) for precise determination of pH in laboratory conditions (pH 0–14; pH accuracy ± 0.01) with combined chloride electrode OSH-10-10 (enables measurements in the temperature range 0–60 °C and pH range 1–12). Then, next portion of titrant was added. Titration was completed after 15 mL of NaOH solution was added. Threefold repetitions of titration were applied. pKa of the tested compound was calculated on the basis of the pH values obtained.

The next data set has as its target T1, hNav1.1 sodium channel (Homo sapiens, UniProt P35498).
T1 construct: host or cells: CHO cells
Description: Nav channel electrophysiology (IonWorks Quattro). The format is cell-based.

A further data set has as its system rats. The data set is described as follows: Sciatic nerve ligation (SNL) model, von Frey test. The format is in vivo. As to conditions: rats; for Threshold ± S.E.M. / % Pre-Drug ± S.E.M.: 6 mg/kg b.w., i.p.
The test system of another data set is mice. Description: animal or person. As to conditions: Mus musculus, ip, read-out: MES ED50.
Data set [4] can be described thus: Degradation kinetics under basic conditions. The format is physicochemical. As to conditions: 70.0 ± 0.5 °C, pH 9.90, 1,4-dioxane 20% v/v. How it is done:
Chromatographic conditions. The liquid chromatography system Merck-Hitachi LaChrom Elite, equipped with a LiChroSpher RP-18 (250 × 4.6 mm; particle size 5 µm) column from Merck was used. Isocratic elution using a mobile phase composed of phosphate buffer pH = 4.36 and acetonitrile (40:60, v/v) at a flow rate of 1 mL min^−1 at 25 °C and single-wavelength UV detection at 260 nm was applied for the analysis. The injection volume was 20 µL.
Kinetic studies. […] After 5 min, first 50 µL sample was taken using a Hamilton syringe. The sample was diluted with 100 µL of pH = 4.36 phosphate buffer and frozen at − 18 °C. The reaction was conducted for 1606 h with samples taken at selected time intervals. After the experiment was finished, the samples have been defrosted and analyzed using the RP-HPLC method described above.

Another data set has as its target T2, hNav1.7 sodium channel (Homo sapiens, UniProt Q15858).
T2 construct: host or cells: CHO cells
The data set is described as follows: Nav channel electrophysiology (IonWorks Quattro). The format is cell-based. For orientation: Patch clamp records ionic current or voltage across a cell membrane.

T2 sequence (Q15858 whole entry): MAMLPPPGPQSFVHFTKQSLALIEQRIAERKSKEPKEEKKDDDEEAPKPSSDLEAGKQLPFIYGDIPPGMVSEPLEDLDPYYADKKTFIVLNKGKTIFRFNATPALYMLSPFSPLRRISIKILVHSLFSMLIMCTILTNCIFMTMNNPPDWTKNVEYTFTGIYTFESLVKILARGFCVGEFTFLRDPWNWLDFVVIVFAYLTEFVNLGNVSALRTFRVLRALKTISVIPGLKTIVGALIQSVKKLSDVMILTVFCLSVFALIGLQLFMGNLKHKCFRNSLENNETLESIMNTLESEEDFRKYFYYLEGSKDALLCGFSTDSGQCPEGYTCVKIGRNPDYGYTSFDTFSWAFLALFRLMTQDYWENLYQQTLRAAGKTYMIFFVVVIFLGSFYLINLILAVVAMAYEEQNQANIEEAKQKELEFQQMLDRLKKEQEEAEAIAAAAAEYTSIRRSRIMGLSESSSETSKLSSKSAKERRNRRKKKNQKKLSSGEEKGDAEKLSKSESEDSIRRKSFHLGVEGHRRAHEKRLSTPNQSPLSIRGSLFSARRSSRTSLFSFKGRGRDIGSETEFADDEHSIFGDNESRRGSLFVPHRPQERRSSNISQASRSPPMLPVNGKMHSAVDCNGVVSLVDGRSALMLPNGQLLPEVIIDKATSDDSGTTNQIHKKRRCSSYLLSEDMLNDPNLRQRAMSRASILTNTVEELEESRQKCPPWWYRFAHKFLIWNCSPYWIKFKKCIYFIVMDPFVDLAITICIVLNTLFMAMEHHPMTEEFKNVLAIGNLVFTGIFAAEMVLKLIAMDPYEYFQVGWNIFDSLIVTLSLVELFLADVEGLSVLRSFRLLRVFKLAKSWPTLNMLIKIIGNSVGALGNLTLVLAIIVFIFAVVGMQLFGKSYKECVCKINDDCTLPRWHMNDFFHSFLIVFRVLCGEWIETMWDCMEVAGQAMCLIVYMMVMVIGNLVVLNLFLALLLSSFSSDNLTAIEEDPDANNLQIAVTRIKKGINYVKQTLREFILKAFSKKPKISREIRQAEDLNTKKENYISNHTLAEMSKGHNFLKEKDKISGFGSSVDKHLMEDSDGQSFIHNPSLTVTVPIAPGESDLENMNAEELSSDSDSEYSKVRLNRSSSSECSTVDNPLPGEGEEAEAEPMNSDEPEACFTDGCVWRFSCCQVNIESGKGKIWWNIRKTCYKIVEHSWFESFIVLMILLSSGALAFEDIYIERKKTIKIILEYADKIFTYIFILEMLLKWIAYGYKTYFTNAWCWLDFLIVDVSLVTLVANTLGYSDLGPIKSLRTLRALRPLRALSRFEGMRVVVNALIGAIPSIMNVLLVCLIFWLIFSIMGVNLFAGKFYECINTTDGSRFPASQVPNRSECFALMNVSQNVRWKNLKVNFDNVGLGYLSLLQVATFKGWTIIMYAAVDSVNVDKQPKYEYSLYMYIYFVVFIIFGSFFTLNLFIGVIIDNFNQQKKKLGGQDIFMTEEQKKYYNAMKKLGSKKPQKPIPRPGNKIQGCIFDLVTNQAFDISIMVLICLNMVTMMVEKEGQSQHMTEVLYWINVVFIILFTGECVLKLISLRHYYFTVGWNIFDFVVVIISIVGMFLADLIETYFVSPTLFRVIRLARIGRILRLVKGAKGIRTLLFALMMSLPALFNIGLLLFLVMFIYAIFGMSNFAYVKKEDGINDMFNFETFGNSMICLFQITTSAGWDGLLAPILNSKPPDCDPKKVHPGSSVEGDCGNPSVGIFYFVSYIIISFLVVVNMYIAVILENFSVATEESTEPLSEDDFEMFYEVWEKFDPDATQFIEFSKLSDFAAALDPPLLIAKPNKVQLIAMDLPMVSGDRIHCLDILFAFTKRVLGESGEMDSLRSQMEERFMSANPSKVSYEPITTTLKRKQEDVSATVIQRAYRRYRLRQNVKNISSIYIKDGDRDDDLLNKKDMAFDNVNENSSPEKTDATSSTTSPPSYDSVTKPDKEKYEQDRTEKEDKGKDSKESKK

Regarding `CCC(CO)NCCOc1c(C)cccc1Cl` (stereo not shown) [Compound 4, R,S-2-((2-(2-chloro-6-methylphenoxy)ethyl)amino)butan-1-ol], the “Max induction (calculated)” value in data set [1] (@ 200uM) is 12 fold. Also, the EC50 in data set [1] (read-out: EC50 (calculated)) is 100 µM.
`CCC(CO)NCCOc1c(C)cccc1Cl` (stereo not shown) [KM-408, R,S-2-((2-(2-chloro-6-methylphenoxy)ethyl)amino)butan-1-ol hydrochloride]: the degradation in data set [2] (0.5 M HCl, 70 °C, 232 h) is 1.65%; in data set [2] (0.5 M NaOH, 70 °C, 232 h) it was 2.02%; in data set [2] (CuSO4, 192 h), 1.65%; in data set [2] (phosphate buffer pH 7.0, 25 °C, 240 h), 1.52%; in data set [2] (phosphate buffer pH 7.0, 70 °C, 168 h) it was 1.96%; in data set [2] (photodegradation, 96 h) it was 1.43%. Moreover, the degradation in data set [2] (reducing agent, 40 °C, 168 h) stood at 1.50%. The compound also returned a degradation products in data set [2] (H2O2, 168 h) of 1.84%. In addition, in data set [3], the pKa was 9.5. Besides, the IC50 against hNav1.1 sodium channel (10 Hz) is 17.5 µM; against hNav1.1 sodium channel (Inactivated state), below 10 µM; against hNav1.1 sodium channel (Tonic block) it was 64.2 µM; against hNav1.7 sodium channel (10 Hz) it was 15.4 µM; on hNav1.7 sodium channel (Inactivated state) it was below 10 µM; at hNav1.7 sodium channel (Tonic block), 52 µM. The “Threshold ± S.E.M.” value with rats (0.0 h (pre-drug)) is reported as 2.88 ± 0.59 g; in the data set with rats (0.5 h), 3.07 ± 0.51 g; with rats (1.0 h), 5.94 ± 1.19 g; in the data set on rats (2.0 h), 8.23 ± 1.56 g; in the data set with rats (4.0 h), 7.09 ± 1.31 g; in the data set on rats (6.0 h), 5.34 ± 1.32 g. In addition, the “% Pre-Drug ± S.E.M.” value came out at 131 ± 15% in the data set with rats (0.5 h); 202 ± 19% in the data set on rats (1.0 h); 301 ± 45 % in the data set on rats (2.0 h); 260 ± 39 % with rats (4.0 h); 186 ± 31% in the data set on rats (6.0 h). The “SNL TPE” value in the data set on rats (ip) was 2 h. Further, the “SNL: active at” value in the data set with rats (ip, von Frey test) was 6.0 mg/kg and 6 mg/kg. Besides, the ED50 in the data set on mice came to 13.3 mg/kg. In addition, in data set [4], the Rate constant k is 0.83·10^–3 h^−1. Besides, the t0.1 in data set [4] is 127.0 h. Also, in data set [4] (borate buffer with 20% v/v 1,4-dioxane, pH 9.9, read-out: Half-life t0.5 (converted)), the half-life at 5 mg/mL is 34.8 days.

What is called EC50 is the concentration at which the effect is half-maximal. The term pKa denotes the negative logarithm of the acid dissociation constant. Low readings indicate a stronger acid or weaker base, high ones a weaker acid or stronger base. By IC50 is commonly meant the concentration that inhibits the measured activity by half. A higher IC50 goes with weaker potency. One may read the ED50 as the dose that gives a 50% effect, or the effect in half of the subjects. A word on the half-life: it is how long it takes for the measured level to halve.
